Data from patent US20200246441A1, “COMPOSITIONS AND METHODS FOR AUTOIMMUNE DISEASE TREATMENT” (AMRITA VISHWA VIDYAPEETHAM, priority 2016, published 2020).
Entries after “also recorded” stand apart in the source; their conditions may differ. Non-standard residues stand in square brackets, D forms with d. No end group written: not given here. βF = beta phenylalanine (beta-amino acid)

Tests used:
[1] = test system: MOG-specific T-cells (spleen cells from MOG T-cell receptor transgenic (2D2) mice); assay: Proliferation assay, 3H-thymidine incorporation; type: cell-based, mouse; conditions: for T-cell proliferation (proliferative response): free peptide or 500 nm silica NPs, up to 8 ug/ml
Protocol: Spleens were dissected from MOG T-cell receptor transgenic mice expressing the transgenic V3.2α/Vβ11 T-cell receptor specific for MOG35-55 peptide ([…]) in the context of 1-A^b. Single cell suspensions were prepared in complete RPMI medium containing 10% heat inactivated FBS, 2 mM L-glutamine, 100 U/ml penicillin, 100 μg/ml streptomycin, 50 μM 2-mercaptoethanol and 1 mM sodium pyruvate (Sigma). Following red blood cell lysis, splenocytes were seeded in triplicate in 96-well, flat bottom microtiter plates (Nunc) at a concentration of 2.5×10^5 cells per well. Splenocytes were cultured in medium alone or in the presence of increasing doses of MOG35-55 or nanoparticles. Cells were incubated at 37° C. for 72 hr with the addition of 1 μCi/well [3H]-thymidine (Perkin Elmer) for the last 18 hr of culture. Cells were harvested onto filter mats (Perkin Elmer) and incorporated radioactive nucleic acids counted using a Top Count NXT Scintillation Counter (Packard Biosciences).

C57Bl/6 EAE mice [2] = assay: EAE induction and clinical scoring, MOG35-55-induced EAE in C57Bl/6 mice (chronic progressive model); type: in vivo, mouse; conditions: for Disease incidence / Mortality: fraction of total; for Cumulative score / Day disease onset / Maximum score / Score at termination: mean ± SEM; for daily mean clinical score compared to controls: treatment prior to induction of EAE
NOD/Lt EAE mice [3] = assay: Histological analysis of CNS tissue of NOD/Lt EAE mice; type: in vivo, mouse; parameters: key to Axonal damage: 0 = no axonal pathology, 3 = severe axonal pathology; key to Demyelination score: 0 = no demyelination, 3 = severe demyelination; conditions: 200 nm silica peptide nanoparticles, mean ± SEM
Protocol: (§1) For histological analysis of CNS tissue, the brain and spinal cord were dissected from mice then fixed in 10% formalin (Sigma) for 24-48 h. Tissue was then processed and embedded in paraffin wax. Serial sections (5 μm) were cut from paraffin-embedded tissues and stained with hematoxylin and eosin, luxol fast blue and Bielschowsky silver impregnation to assess inflammation, demyelination and axonal damage, respectively. Sections were scored blind for semi-quantitative histological analysis of inflammation as follows: 0, no inflammation: 1, cellular infiltrate only in the perivascular areas and meninges; 2, mild cellular infiltrate in parenchyma: 3, moderate cellular infiltrate in parenchyma; 4, severe cellular infiltrate in parenchyma. Demyelination and axonal pathology were assessed by pale staining and scored blind as follows: 0, no demyelination/axonal pathology: 1, mild demyelination/axonal pathology; 2, moderate demyelination-axonal pathology; 3, severe demyelination/axonal pathology.

NOD/Lt EAE mice [4] = assay: EAE induction and clinical scoring, recombinant mouse MOG-induced EAE in NOD/Lt mice (relapsing remitting model); type: in vivo; conditions: for Disease incidence / Mortality / Cumulative score / Day disease onset / Maximum score / Score at termination: 200 nm silica peptide nanoparticles, NOD/Lt; for Disease incidence / Mortality: fraction of total; for Cumulative score / Day disease onset / Maximum score / Score at termination: mean ± SEM
C57Bl/6 EAE mice [5] = assay: Histological analysis of CNS tissue of C57Bl/6 EAE mice; type: in vivo, mouse; parameters: key to Axonal damage: 0 = no axonal pathology, 3 = severe axonal pathology; key to Demyelination score: 0 = no demyelination, 3 = severe demyelination; conditions: for Axonal damage / Demyelination score / Inflammation score: mean ± SEM; for CNS inflammation, demyelination and axonal damage: 500 nm NPs, versus bare NPs or scrambled MOG37-52 NPs
Protocol: as §1

EAE = conditions: administered as free peptide; cited from earlier work
[6] = 200 nm silica peptide nanoparticles
[7] = 500 nm silica peptide nanoparticles, i.v. day -7 and -1
[8] = 500 nm silica peptide nanoparticles

Row | Molecule | T-cell proliferation (proliferative response) [1] | Disease incidence (C57Bl/6 EAE mice [2]; [6]) | Mortality (C57Bl/6 EAE mice [2]; [6]) | Cumulative score (C57Bl/6 EAE mice [2]; [6]) | Day disease onset (C57Bl/6 EAE mice [2]; [6]) | Maximum score (C57Bl/6 EAE mice [2]; [6]) | Score at termination (C57Bl/6 EAE mice [2]; [6]) | Disease incidence (C57Bl/6 EAE mice [2]; [7]) | Mortality (C57Bl/6 EAE mice [2]; [8]) | Cumulative score (C57Bl/6 EAE mice [2]; [8]) | Day disease onset (C57Bl/6 EAE mice [2]; [8]) | Maximum score (C57Bl/6 EAE mice [2]; [8]) | Score at termination (C57Bl/6 EAE mice [2]; [8]) | Axonal damage (NOD/Lt EAE mice [3]) | Demyelination score (NOD/Lt EAE mice [3]) | Inflammation score (NOD/Lt EAE mice [3]) | Disease incidence (NOD/Lt EAE mice [4]) | Axonal damage (C57Bl/6 EAE mice [5]; [8]) | Demyelination score (C57Bl/6 EAE mice [5]; [8]) | Inflammation score (C57Bl/6 EAE mice [5]; [8]) | further results
1 | MEVGWYRSPFSRVVHLYRNGK [MOG35-55, encephalitogenic mouse MOG peptide, free peptide, reference compound] | robust proliferation response | – | – | – | – | – | – | – | – | – | – | – | – | – | – | – | – | – | – | – | –
2 | MOG37-52: silica nanoparticles coated with mouse MOG37-52 peptide VGWYRSPFSRVVHLYR; 500 nm in Table 1, 200 nm in Tables 2 and 3 | comparable proliferative response; also recorded: comparable to the MOG37-52 peptide | 10/10 | 0/10 | 33.05 ± 2.086 ∧∧∧∧ | 15.70 ± 1.334 | 2.50 ± 0.1667^∧ | 1.45 ± 0.2930^∧∧∧ | 6/6 | 0/6 | 26.00 ± 8.039 ^** | 17.17 ± 2.151 | 2.00 ± 0.3873 | 1.083 ± 0.3270 | 2.833 ± 0.1667 | 2.917 ± 0.0833 | 4.167 ± 0.1667 | 6/6 | 1.208 ± 0.2275 ^∧∧ | 0.833 ± 0.8333 ^** ∧∧∧∧ | 1.542 ± 0.2275 ^* ∧∧ | effect on clinical disease (C57Bl/6 EAE mice [2]; 200 nm NPs, C57BL/6 mice): significant effect on clinical disease; daily mean clinical score compared to controls (C57Bl/6 EAE mice [2]; 500 nm NPs): significant reduction; disease severity (NOD/Lt EAE mice [4]; 200 nm NPs, NOD/Lt mice): significantly reduced disease severity; Mortality (NOD/Lt EAE mice [4]): 0/6; Cumulative score (NOD/Lt EAE mice [4]): 30.50 ± 3.266^∧∧ ^##; Day disease onset (NOD/Lt EAE mice [4]): 17.33 ± 2.23; Maximum score (NOD/Lt EAE mice [4]): 2.667 ± 0.1667^∧; Score at termination (NOD/Lt EAE mice [4]): 2.25 ± 0.2814^∧; axonal damage compared to bear, scrambled MOG37-52 or ovalbumin nanoparticles (C57Bl/6 EAE mice [5]; 200 nm silica nanoparticles): significantly reduced axonal damage; inflammation compared to bear nanoparticles (C57Bl/6 EAE mice [5]; 200 nm silica nanoparticles): significantly reduced inflammation; Axonal damage (C57Bl/6 EAE mice [5]; [6]): 1.35 ± 0.1833 # ^∧∧∧; Demyelination score (C57Bl/6 EAE mice [5]; [6]): 1.85 ± 0.2242; Inflammation score (C57Bl/6 EAE mice [5]; [6]): 2.275 ± 0.3772^∧; CNS inflammation, demyelination and axonal damage (C57Bl/6 EAE mice [5]): reduction in CNS inflammation, demyelination and axonal damage; also recorded: significantly reduced inflammation, demyelination and axonal damage; proliferative response ([1]; 200 nm NPs): did not induce a proliferative response that was above background levels
3 | MOG44BF: 500 nm silica nanoparticles coated with MOG44βF peptide VGWYRSPβFSRVVHLYR (VGWYRSP[βF]SRVVHLYR; also: coated on 500 nm silica nanoparticles) | – | – | – | – | – | – | – | 2/6 | 0/6 | 5.417 ± 3.967 ^**** ∧∧∧ | 29.17 ± 3.710^++ ^### *** ∧∧∧ | 0.4167 ± 0.3270^++ ^*** ∧∧∧ | 0.1667 ± 0.1054 # ^∧ | – | – | – | – | 0.5833 ± 0.2007 ∧∧∧∧ | 0.375 ± 0.08539^### *** ∧∧∧∧ | 0.7917 ± 0.2694^### *** ∧∧∧∧ | therapeutic effect compared to MOG37-52 coated NPs (onset, disease severity) (C57Bl/6 EAE mice [2]; 500 nm NPs): more significant therapeutic effect; daily mean clinical score compared to controls (C57Bl/6 EAE mice [2]; 500 nm NPs): significant reduction; CNS inflammation, demyelination and axonal damage (C57Bl/6 EAE mice [5]): reduction in CNS inflammation, demyelination and axonal damage; also recorded: significantly reduced inflammation, demyelination and axonal damage; T-cell proliferation (proliferative response) ([1]; listed as MOG440F): not capable of stimulating T-cell proliferation; T-cell proliferation (proliferative response) ([1]; listed as MOG441F): did not induce a robust proliferative response
4 | ScrMOG37-52: control silica nanoparticles (500 nm or 200 nm) coated with scrambled MOG37-52 peptide RSVLVPSRWRHFYGVY [reference compound] | not capable of stimulating T-cell proliferation | 8/8 | 0/8 | 52.50 ± 4.621 | 13.38 ± 0.9051 | 3.313 ± 0.2825 | 2.313 ± 0.4525 | 6/6 | 0/6 | 52.5 ± 2.053 | 12.67 ± 0.4216 | 3.00 ± 0.0000 | 1.833 ± 0.2108 | 2.583 ± 0.2007 | 2.583 ± 0.2007 | 3.583 ± 0.2713 | 6/6 | 2.367 ± 0.2472 | 2.333 ± 0.2108 | 2.917 ± 0.2007 | Mortality (NOD/Lt EAE mice [4]): 0/6; Cumulative score (NOD/Lt EAE mice [4]): 58.5 ± 2.772; Day disease onset (NOD/Lt EAE mice [4]): 13.00 ± 0.4472; Maximum score (NOD/Lt EAE mice [4]): 3.583 ± 0.3005; Score at termination (NOD/Lt EAE mice [4]): 3.333 ± 0.3333; Axonal damage (C57Bl/6 EAE mice [5]; [6]): 2.188 ± 0.2302; Demyelination score (C57Bl/6 EAE mice [5]; [6]): 2.063 ± 0.2745; Inflammation score (C57Bl/6 EAE mice [5]; [6]): 2.688 ± 0.3889
5 | VGWYRSPβFSRVVHLYR [MOG 44βF] | – | – | – | – | – | – | – | – | – | – | – | – | – | – | – | – | – | – | – | – | dosage at which free peptide suppressed EAE (EAE): 800 µg
6 | Ova: control silica nanoparticles (500 nm or 200 nm) coated with ovalbumin (conjugate) GSIGAASMEFCFDVFKELKVHHANENIFYCPIAIMSALAMVYLGAKDSTRTQINKVVRFDKLPGFGDSIEAQCGTSVNVHSSLRDILNQITKPNDVYSFSLASRLYAEERYPILPEYLQCVKELYRGGLEPINFQTAADQARELINSWVESQTNGIIRNVLQPSSVDSQTAMVLVNAIVFKGLWEKAFKDEDTQAMPFRVTEQESKPVQMMYQIGLFRVASMASEKMKILELPFASGTMSMLVLLPDEVSGLEQLESIINFEKLTEWTSSNVMEERKIKVYLPRMKMEEKYNLTSVLMAMGITDVFSSSANLSGISSAESLKISQAVHAAHAEINEAGREVVGSAEAGVDAASVSEEFRADHPFLFCIKHIATNAVLFFGRCVSP | not capable of stimulating T-cell proliferation | 5/5 | 0/5 | 62.00 ± 4.987 | 10.60 ± 0.9274 | 3.3 ± 0.2000 | 2.60 ± 0.3317 | 4/4 | 1/4 | 69.38 ± 11.77 | 10.75 ± 0.8539 | 3.625 ± 0.4732 | 2.75 ± 0.7773 | 2.60 ± 0.1871 | 2.60 ± 0.1871 | 4.00 ± 0.00 | 6/6 | 2.333 ± 0.1667 | 2.333 ± 0.1667 | 2.833 ± 0.1667 | Mortality (NOD/Lt EAE mice [4]): 1/6; Cumulative score (NOD/Lt EAE mice [4]): 46.75 ± 4.656; Day disease onset (NOD/Lt EAE mice [4]): 14.17 ± 1.327; Maximum score (NOD/Lt EAE mice [4]): 3.583 ± 0.3005; Score at termination (NOD/Lt EAE mice [4]): 3.167 ± 0.4014; Axonal damage (C57Bl/6 EAE mice [5]; [6]): 2.50 ± 0.2236; Demyelination score (C57Bl/6 EAE mice [5]; [6]): 2.40 ± 0.3674; Inflammation score (C57Bl/6 EAE mice [5]; [6]): 2.80 ± 0.4899
